# Results published in ChEMBL document CHEMBL1148600, “Synthesis and in vivo validation of [O-methyl-11C]2-{4-[4-(7-methoxynaphthalen-1-yl)piperazin- 1-yl]butyl}-4-methyl-2H-[1,2,4]triazine-3,5-dione: a novel 5-HT1A receptor agonist positron emission tomography ligand” (J Med Chem, 2006).
# Legend:
# Adenosine receptor A2a = Adenosine receptor A2a (Homo sapiens, UniProt P29274); assay: Binding affinity to adenosine […] receptor
# Histamine H2 receptor = Histamine H2 receptor (Homo sapiens, UniProt P25021); assay: Binding affinity to histamine H2 receptor
# Histamine H1 receptor = Histamine H1 receptor (Homo sapiens, UniProt P35367); assay: Binding affinity to histamine H1 receptor
# [1] = target: Chromaffin granule amine transporter (Homo sapiens, UniProt P54219); assay: Binding affinity to VMAT1
# Sequence of Chromaffin granule amine transporter (P54219 whole entry): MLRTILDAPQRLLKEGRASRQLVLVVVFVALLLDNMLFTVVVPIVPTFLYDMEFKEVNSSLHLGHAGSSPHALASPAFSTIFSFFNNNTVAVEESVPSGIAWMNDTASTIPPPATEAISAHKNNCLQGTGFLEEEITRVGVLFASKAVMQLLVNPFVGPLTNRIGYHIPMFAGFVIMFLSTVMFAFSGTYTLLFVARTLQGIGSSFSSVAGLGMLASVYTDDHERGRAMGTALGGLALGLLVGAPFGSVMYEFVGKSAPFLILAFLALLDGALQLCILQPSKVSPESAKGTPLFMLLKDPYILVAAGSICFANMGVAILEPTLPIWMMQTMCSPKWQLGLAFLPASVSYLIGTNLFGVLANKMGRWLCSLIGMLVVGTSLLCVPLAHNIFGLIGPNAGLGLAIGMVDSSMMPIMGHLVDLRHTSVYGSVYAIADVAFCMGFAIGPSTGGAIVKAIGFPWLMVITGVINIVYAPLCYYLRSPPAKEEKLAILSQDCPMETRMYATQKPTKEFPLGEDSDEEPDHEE
# Vasopressin V1 receptor = Vasopressin V1 receptor (Homo sapiens, UniProt P37288+P47901); assay: Binding affinity to vasopressin 1 receptor; assay type: protein assay
# [2] = target: Adrenergic receptor alpha-1 (Homo sapiens, UniProt P35348+P25100+P35368); assay: Binding affinity to adrenergic alpha-1 receptor; assay type: protein assay
# [3] = target: T1, 5-hydroxytryptamine receptor 1A (Homo sapiens, UniProt P08908); assay: Displacement of [3H]8-OH-DPAT from human 5HT1A receptor expressed in CHO cells; assay type: cell-based
# T1 sequence (P08908 whole entry): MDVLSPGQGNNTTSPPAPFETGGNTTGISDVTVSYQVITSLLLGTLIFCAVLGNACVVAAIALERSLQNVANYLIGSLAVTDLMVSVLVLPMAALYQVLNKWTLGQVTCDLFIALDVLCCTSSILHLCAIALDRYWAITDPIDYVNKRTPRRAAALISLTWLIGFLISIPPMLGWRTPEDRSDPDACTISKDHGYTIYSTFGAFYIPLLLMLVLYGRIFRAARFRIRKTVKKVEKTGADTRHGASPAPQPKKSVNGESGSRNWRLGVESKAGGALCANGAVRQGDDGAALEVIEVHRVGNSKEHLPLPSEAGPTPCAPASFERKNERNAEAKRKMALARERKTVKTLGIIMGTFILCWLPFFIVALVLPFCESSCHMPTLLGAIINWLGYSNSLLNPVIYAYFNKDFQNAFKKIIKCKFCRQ
# [4] = Binding affinity to calcium channel
# Adenosine receptor A3 = Adenosine receptor A3 (Homo sapiens, UniProt P0DMS8); assay: Binding affinity to adenosine A3 receptor
# Sequence of Adenosine receptor A3 (P0DMS8 whole entry): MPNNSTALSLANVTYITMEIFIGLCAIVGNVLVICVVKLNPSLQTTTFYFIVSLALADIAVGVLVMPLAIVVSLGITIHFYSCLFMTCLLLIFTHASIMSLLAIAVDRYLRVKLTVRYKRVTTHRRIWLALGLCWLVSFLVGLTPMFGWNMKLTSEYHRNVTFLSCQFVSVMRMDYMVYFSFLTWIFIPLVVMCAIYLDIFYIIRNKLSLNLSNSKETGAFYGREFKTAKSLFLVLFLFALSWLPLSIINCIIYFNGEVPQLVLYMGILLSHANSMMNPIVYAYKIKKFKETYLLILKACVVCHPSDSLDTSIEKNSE
# [5] = target: Sodium-dependent dopamine transporter (Homo sapiens, UniProt Q01959); assay: Binding affinity to DAT
# D(4) dopamine receptor = D(4) dopamine receptor (Homo sapiens, UniProt P21917); assay: Binding affinity to dopamine D4 receptor
# Adenosine A2 receptor = Adenosine A2 receptor (Homo sapiens, UniProt P29275+P29274); assay: Binding affinity to adenosine A2 receptor; assay type: protein assay
# [6] = target: Sodium-dependent noradrenaline transporter (Homo sapiens, UniProt P23975); assay: Binding affinity to NET
# [7] = target: Alpha-2A adrenergic receptor (Homo sapiens, UniProt P08913); assay: Binding affinity to adrenergic alpha-2A receptor
# [8] = target: 5-hydroxytryptamine receptor 2A (Homo sapiens, UniProt P28223); assay: Binding affinity to human 5HT2A receptor
# Sequence of 5-hydroxytryptamine receptor 2A (P28223 whole entry): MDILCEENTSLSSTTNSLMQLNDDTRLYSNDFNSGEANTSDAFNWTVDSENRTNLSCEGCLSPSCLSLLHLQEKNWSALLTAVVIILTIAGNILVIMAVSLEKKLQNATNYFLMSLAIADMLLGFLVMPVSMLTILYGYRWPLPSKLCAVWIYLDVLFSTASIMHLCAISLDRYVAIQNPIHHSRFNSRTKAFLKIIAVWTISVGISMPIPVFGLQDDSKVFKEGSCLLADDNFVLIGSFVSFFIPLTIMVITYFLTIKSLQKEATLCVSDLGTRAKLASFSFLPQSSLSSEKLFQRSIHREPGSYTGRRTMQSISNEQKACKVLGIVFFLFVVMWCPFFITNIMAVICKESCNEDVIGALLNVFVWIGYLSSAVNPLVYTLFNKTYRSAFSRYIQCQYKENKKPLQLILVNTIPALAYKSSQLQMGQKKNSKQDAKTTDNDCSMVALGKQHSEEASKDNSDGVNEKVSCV
# [9] = target: Sigma non-opioid intracellular receptor 1 (Homo sapiens, UniProt Q99720); assay: Binding affinity to sigma1 receptor
# Sequence of Sigma non-opioid intracellular receptor 1 (Q99720 whole entry): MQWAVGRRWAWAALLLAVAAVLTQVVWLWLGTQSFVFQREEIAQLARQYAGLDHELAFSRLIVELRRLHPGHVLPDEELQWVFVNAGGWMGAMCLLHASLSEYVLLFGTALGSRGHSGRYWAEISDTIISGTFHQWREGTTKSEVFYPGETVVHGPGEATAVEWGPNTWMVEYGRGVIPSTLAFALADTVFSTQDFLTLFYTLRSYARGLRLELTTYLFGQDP
# [10] = Binding affinity to mGluR
# Histamine H4 receptor = Histamine H4 receptor (Homo sapiens, UniProt Q9H3N8); assay: Binding affinity to histamine H4 receptor
# [11] = target: ATP-dependent translocase ABCB1 (Homo sapiens, UniProt P08183); assay: Binding affinity to MDR1
# Sequence of ATP-dependent translocase ABCB1 (P08183 whole entry): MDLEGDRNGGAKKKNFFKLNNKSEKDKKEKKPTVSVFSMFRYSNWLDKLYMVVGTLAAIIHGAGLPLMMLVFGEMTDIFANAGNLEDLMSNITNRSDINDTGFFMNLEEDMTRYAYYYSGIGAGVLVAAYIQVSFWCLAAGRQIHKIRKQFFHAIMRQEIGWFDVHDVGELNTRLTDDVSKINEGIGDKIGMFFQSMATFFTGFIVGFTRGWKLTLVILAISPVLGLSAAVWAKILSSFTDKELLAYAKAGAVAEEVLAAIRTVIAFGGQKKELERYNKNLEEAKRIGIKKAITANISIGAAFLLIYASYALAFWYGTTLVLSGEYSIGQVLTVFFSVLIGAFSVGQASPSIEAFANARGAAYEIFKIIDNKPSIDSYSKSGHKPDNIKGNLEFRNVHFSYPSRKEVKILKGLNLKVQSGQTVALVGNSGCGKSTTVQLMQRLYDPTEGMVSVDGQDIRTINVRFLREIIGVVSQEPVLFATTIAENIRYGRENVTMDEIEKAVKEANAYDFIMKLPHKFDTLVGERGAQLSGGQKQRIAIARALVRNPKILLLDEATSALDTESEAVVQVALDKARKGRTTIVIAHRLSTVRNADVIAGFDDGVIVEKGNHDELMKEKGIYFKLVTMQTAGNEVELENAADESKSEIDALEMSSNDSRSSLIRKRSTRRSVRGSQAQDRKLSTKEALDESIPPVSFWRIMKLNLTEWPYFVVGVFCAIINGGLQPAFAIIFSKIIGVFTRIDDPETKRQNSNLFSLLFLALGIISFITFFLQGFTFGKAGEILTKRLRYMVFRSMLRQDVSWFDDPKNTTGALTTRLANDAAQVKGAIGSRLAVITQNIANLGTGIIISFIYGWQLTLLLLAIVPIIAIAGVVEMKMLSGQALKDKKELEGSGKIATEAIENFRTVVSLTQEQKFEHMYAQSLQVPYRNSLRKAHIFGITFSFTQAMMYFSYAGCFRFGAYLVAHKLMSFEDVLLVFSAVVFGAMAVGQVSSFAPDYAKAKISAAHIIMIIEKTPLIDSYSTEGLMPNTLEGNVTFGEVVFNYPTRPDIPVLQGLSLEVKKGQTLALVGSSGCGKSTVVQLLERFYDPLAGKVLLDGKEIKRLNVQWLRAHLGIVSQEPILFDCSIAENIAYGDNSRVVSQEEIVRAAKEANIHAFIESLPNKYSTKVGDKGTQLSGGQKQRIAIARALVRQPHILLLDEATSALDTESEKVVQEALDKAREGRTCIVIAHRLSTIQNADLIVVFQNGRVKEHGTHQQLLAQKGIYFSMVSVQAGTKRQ
# [12] = Binding affinity to prostanoid receptor
# [13] = Binding affinity to GABA receptor
# D(1B) dopamine receptor = D(1B) dopamine receptor (Homo sapiens, UniProt P21918); assay: Binding affinity to dopamine D5 receptor
# [14] = Binding affinity to NK receptor
# Histamine H3 receptor = Histamine H3 receptor (Homo sapiens, UniProt Q9Y5N1); assay: Binding affinity to histamine H3 receptor
# D(3) dopamine receptor = D(3) dopamine receptor (Homo sapiens, UniProt P35462); assay: Binding affinity to dopamine D3 receptor
# [15] = target: Beta-3 adrenergic receptor (Homo sapiens, UniProt P13945); assay: Binding affinity to adrenergic beta-3 receptor
# Sigma 2 receptor = assay: Binding affinity to sigma2 receptor
# [16] = target: Muscarinic acetylcholine receptor; assay: Binding affinity to muscarinic receptor; assay type: protein assay
# [17] = target: T1, 5-hydroxytryptamine receptor 1A; assay: Agonistic activity at human 5HT1A in CHO cells by the inhibition of forskolin-stimulated cAMP accumulation; assay type: functional, cell-based
# [18] = target: Glutamate receptor ionotropic AMPA (Homo sapiens, UniProt P42261+P42262+P42263+P48058); assay: Binding affinity to AMPA receptor; assay type: protein-complex assay
# Mu-type opioid receptor = Mu-type opioid receptor (Homo sapiens, UniProt P35372); assay: Binding affinity to mu opioid receptor
# [19] = target: Beta-2 adrenergic receptor (Homo sapiens, UniProt P07550)
# [20] = target: Voltage-gated inwardly rectifying potassium channel KCNH2 (Homo sapiens, UniProt Q12809); assay: Binding affinity to hERG
# [21] = Binding affinity to imidazoline receptor
# [22] = target: Beta-1 adrenergic receptor (Homo sapiens, UniProt P08588); assay: Binding affinity to adrenergic beta-1 receptor
# [23] = target: Synaptic vesicular amine transporter (Homo sapiens, UniProt Q05940); assay: Binding affinity to VMAT2
# [24] = target: Sodium-dependent serotonin transporter (Homo sapiens, UniProt P31645); assay: Binding affinity to SERT
# [25] = target: 5-hydroxytryptamine receptor 5A (Homo sapiens, UniProt P47898); assay: Binding affinity to human 5HT5A receptor
# [26] = target: Alpha-2B adrenergic receptor (Homo sapiens, UniProt P18089); assay: Binding affinity to adrenergic alpha-2B receptor
# Sequence of Alpha-2B adrenergic receptor (P18089 whole entry): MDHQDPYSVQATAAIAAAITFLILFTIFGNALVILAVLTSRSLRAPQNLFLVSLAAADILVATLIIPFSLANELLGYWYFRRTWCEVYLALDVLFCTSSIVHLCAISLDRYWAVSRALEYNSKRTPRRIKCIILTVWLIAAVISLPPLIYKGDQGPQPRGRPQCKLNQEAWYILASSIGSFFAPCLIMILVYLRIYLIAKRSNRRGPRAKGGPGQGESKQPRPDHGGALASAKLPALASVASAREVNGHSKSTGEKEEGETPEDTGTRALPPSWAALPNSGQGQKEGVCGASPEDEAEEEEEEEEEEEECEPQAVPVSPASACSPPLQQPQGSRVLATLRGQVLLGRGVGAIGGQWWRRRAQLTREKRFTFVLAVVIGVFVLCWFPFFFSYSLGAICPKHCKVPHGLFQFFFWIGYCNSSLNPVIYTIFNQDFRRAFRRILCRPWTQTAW
# [27] = target: Delta-type opioid receptor (Homo sapiens, UniProt P41143); assay: Binding affinity to Delta opioid receptor
# Sequence of Delta-type opioid receptor (P41143 whole entry): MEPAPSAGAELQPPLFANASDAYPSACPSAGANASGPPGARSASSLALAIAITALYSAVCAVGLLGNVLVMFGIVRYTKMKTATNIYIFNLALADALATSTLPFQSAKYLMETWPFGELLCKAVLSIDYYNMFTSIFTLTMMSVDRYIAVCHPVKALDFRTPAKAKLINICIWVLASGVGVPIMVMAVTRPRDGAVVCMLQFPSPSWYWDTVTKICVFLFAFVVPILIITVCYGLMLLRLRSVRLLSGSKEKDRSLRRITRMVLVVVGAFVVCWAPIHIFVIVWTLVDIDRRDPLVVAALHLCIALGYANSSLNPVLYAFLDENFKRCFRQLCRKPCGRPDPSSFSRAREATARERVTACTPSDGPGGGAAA
# [28] = target: 5-hydroxytryptamine receptor 7 (Homo sapiens, UniProt P34969); assay: Binding affinity to human 5HT7 receptor
# D(1A) dopamine receptor = D(1A) dopamine receptor (Homo sapiens, UniProt P21728); assay: Binding affinity to dopamine D1 receptor
# [29] = target: 5-hydroxytryptamine receptor 6 (Homo sapiens, UniProt P50406); assay: Binding affinity to human 5HT6 receptor
# [30] = target: Alpha-2C adrenergic receptor (Homo sapiens, UniProt P18825); assay: Binding affinity to adrenergic alpha-2C receptor
# [31] = target: Glutamate [NMDA] receptor; assay: Binding affinity to NMDA receptor; assay type: protein-complex assay
# D(2) dopamine receptor = D(2) dopamine receptor (Homo sapiens, UniProt P14416); assay: Binding affinity to dopamine D2 receptor
# Sequence of D(2) dopamine receptor (P14416 whole entry): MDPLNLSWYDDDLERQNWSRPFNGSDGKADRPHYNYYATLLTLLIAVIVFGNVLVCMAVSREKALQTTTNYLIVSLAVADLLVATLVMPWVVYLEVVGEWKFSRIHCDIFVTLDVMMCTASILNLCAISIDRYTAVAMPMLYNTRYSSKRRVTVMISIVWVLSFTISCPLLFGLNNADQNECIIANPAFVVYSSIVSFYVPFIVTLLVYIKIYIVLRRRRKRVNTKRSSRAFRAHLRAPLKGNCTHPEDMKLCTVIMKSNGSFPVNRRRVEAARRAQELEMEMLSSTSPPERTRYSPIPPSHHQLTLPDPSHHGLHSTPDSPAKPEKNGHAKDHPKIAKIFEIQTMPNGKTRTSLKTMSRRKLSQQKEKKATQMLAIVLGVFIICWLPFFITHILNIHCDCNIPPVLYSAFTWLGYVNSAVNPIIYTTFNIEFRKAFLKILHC
# [32] = Binding affinity to sodium channel
# [33] = target: Serotonin 3 (5-HT3) receptor; assay: Binding affinity to human 5HT3 receptor; assay type: protein-complex assay
# Vasopressin V2 receptor = Vasopressin V2 receptor (Homo sapiens, UniProt P30518); assay: Binding affinity to vasopressin 2 receptor
# [34] = target: 5-hydroxytryptamine receptor 2C (Homo sapiens, UniProt P28335); assay: Binding affinity to human 5HT2C receptor
# Sequence of 5-hydroxytryptamine receptor 2C (P28335 whole entry): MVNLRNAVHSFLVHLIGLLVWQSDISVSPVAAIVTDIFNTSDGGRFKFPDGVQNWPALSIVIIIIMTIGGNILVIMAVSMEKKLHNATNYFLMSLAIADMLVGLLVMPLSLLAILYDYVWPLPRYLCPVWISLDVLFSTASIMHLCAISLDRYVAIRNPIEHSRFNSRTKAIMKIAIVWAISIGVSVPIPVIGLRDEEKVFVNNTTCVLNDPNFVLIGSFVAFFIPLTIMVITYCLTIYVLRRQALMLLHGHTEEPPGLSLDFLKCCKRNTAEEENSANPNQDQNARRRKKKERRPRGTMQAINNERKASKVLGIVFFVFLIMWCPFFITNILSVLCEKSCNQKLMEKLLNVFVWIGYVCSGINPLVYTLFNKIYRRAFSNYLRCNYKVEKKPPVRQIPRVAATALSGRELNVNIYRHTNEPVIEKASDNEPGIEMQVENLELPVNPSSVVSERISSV
# [35] = target: Kappa-type opioid receptor (Homo sapiens, UniProt P41145); assay: Binding affinity to kappa opioid receptor
# Cannabinoid receptor 1 = Cannabinoid receptor 1 (Homo sapiens, UniProt P21554); assay: Binding affinity to CB1 receptor
# [36] = target: T1, 5-hydroxytryptamine receptor 1A; assay: Agonistic activity at human 5HT1A receptor by [35S]GTP-gamma-S binding; assay type: functional
# [37] = target: Tumor necrosis factor receptor superfamily member 16 (Homo sapiens, UniProt P08138); assay: Binding affinity to neurotrophin receptor
# Cannabinoid receptor 2 = Cannabinoid receptor 2 (Homo sapiens, UniProt P34972); assay: Binding affinity to CB2 receptor
# Sequence of Adenosine receptor A2a (P29274 whole entry): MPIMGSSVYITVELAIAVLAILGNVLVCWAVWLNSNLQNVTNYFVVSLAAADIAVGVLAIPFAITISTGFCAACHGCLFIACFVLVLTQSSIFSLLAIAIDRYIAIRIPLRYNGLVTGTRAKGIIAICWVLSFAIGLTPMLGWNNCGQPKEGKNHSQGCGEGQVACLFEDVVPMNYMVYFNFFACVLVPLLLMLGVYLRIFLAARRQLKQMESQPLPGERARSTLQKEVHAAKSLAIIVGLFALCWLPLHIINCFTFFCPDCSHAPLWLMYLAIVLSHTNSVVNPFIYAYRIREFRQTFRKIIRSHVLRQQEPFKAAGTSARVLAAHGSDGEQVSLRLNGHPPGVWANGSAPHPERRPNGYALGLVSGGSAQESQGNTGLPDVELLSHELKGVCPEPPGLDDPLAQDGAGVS
structure (smiles),measurement,setting,value
Cn1c(=O)cnn(CCCCN2CCN(c3cccc4ccc(O[11CH3])cc34)CC2)c1=O,Ki,Adenosine receptor A2a,> 10000 nM
same,Ki,Histamine H2 receptor,302 nM
same,Ki,Histamine H1 receptor,150 nM
same,Ki,[1],> 10000 nM
same,Ki,Vasopressin V1 receptor,> 10000 nM
same,Ki,[2],32.2 nM
same,Ki,[3],1.36 nM
same,Ki,[4],> 10000 nM
same,Ki,Adenosine receptor A3,> 10000 nM
same,Ki,[5],407 nM
same,Ki,D(4) dopamine receptor,8.5 nM
same,Ki,Adenosine A2 receptor,> 10000 nM
same,Ki,[6],6980 nM
same,Ki,[7],1010 nM
same,Ki,[8],41.5 nM
same,Ki,[9],480 nM
same,Ki,[10],> 10000 nM
same,Ki,Histamine H4 receptor,> 10000 nM
same,Ki,[11],> 10000 nM
same,Ki,[12],> 10000 nM
same,Ki,[13],> 10000 nM
same,Ki,D(1B) dopamine receptor,> 10000 nM
same,Ki,[14],> 10000 nM
same,Ki,Histamine H3 receptor,> 10000 nM
same,Ki,D(3) dopamine receptor,62.8 nM
same,Ki,[15],> 10000 nM
same,Ki,Sigma 2 receptor,> 10000 nM
same,Ki,[16],> 10000 nM
same,EC50,[17],0.01 nM
same,Ki,[18],> 10000 nM
same,Ki,Mu-type opioid receptor,> 10000 nM
same,Ki,[19],60.6 nM
same,Ki,[20],> 10000 nM
same,Ki,[21],> 10000 nM
same,Ki,[22],476 nM
same,Ki,[23],> 10000 nM
same,Ki,[24],6140 nM
same,Ki,[25],229 nM
same,Ki,[26],316 nM
same,Ki,[27],> 10000 nM
same,Ki,[28],9.1 nM
same,Ki,D(1A) dopamine receptor,7400 nM
same,Ki,[29],120 nM
same,Ki,[30],23.7 nM
same,Ki,[31],> 10000 nM
same,Ki,D(2) dopamine receptor,22 nM
same,Ki,[32],> 10000 nM
same,Ki,[33],> 10000 nM
same,Ki,Vasopressin V2 receptor,> 10000 nM
same,Ki,[34],99.6 nM
same,Ki,[35],> 10000 nM
same,Ki,Cannabinoid receptor 1,> 10000 nM
same,EC50,[36],0.05 nM
same,Ki,[37],> 10000 nM
same,Ki,Cannabinoid receptor 2,> 10000 nM
